The source of these data is ChEMBL document CHEMBL1201862, “PubChem BioAssay data set” (2004).

Assay [1] can be described thus: A Cell-Based Confirmatory Screen for Compounds that Inhibit VEEV TC-83 (4). The assay is classed as functional.
Assay [2] in a line: A Cell-Based Confirmatory Screen for Compounds that Inhibit VEEV, TC-83 (5). The assay is classed as functional.
Assay [3] in a line: A Cell-Based Confirmatory Screen for Compounds that Inhibit VEEV, TC-83 (8). The assay is classed as functional.
Assay [4] is described as follows: Late-stage results from the probe development effort to identify antagonists of arginine vasopressin receptor 1a (AVPR1a): fluorescence-based cell-based dose response AVPR1a inhibition assay. The assay is classed as functional.
For a further assay, the target named is Vasopressin V1b receptor (Homo sapiens, UniProt P47901). The assay can be described thus: Late-stage results from the probe development effort to identify antagonists of arginine vasopressin receptor 1a (AVPR1a): fluorescence-based cell-based dose response AVPR1b inhibition counterscreen assay. The assay is classed as functional.
Assay [5] can be described thus: Late-stage results from the probe development effort to identify antagonists of arginine vasopressin receptor 1a (AVPR1a): fluorescence-based cell-based dose response OXTR inhibition counterscreen assay. The assay is classed as functional.
The next assay concerns the target Vasopressin V2 receptor (Homo sapiens, UniProt P30518). Put plainly: Late-stage results from the probe development effort to identify antagonists of arginine vasopressin receptor 1a (AVPR1a): fluorescence-based cell-based dose response AVPR2 inhibition counterscreen assay. The assay is classed as functional.
The nature of assay [6]: anti-trypanosomal activity in BESM host cells – imaging, CA-I/72 strain, bovine embryo skeletal muscle, dry powder, dose response (AID 651885). The assay is classed as functional, cell-based.
Assay [7] is described as follows: growth inhibition of replicating M. tuberculosis, dose response, counter-screen, dry powder, IC90 (AID 651617). The assay is classed as functional. The following applies: Mycobacterium tuberculosis.
Assay [8] in a line: inhibitors of non-replicating M. tuberculosis, dose response, luciferase, dry powder (AID 651620). The assay is classed as functional. The following applies: Mycobacterium tuberculosis.
Assay [9] in a line: inhibitors of non-replicating M. tuberculosis, dose response, luciferase, dry powder (AID 651619). The assay is classed as functional. The following applies: Mycobacterium tuberculosis.
The nature of assay [10]: HepG2 hepatoma cell viability loss – plate reader, dry powder, cytotoxicity control, dose response (AID 651947). The assay is classed as functional, cell-based.
Assay [11] deals with T1, Oxysterols receptor LXR-beta (Homo sapiens, UniProt P55055).
T1 sequence (P55055 whole entry): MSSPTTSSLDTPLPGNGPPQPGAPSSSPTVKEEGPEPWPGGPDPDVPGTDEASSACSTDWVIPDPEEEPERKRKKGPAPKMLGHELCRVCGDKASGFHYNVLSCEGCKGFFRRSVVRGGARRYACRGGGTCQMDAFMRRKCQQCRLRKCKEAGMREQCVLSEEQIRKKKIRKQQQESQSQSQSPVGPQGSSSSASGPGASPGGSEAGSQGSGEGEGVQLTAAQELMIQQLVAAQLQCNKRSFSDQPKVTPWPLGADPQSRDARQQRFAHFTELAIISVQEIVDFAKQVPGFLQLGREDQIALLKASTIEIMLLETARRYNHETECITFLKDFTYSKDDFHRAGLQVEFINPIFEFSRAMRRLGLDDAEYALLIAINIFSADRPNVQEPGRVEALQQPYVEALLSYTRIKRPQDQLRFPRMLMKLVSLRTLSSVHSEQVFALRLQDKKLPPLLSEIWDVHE
The assay is classed as functional, cell-based.

Assay [12] in a line: activation of miR-122 Renilla sensor silencing – cell-based, Huh7 psiCHECK-miR122, Renilla luciferase, cherry-picked, dose response (AID 651956).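 Also: huh7 hepatoma cells stably carrying a psiCHECK-2 miR-122 sensor plasmid; renilla luciferase signal reporting endogenous miR-122 activity after 48 h compound exposure.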 The assay is classed as functional.
The nature of assay [13]: general mammalian cell viability loss – activator set, cherry-pick, cytotoxicity control for miR-122 modulator project, dose response (AID 720690).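 Also: HEK293T human cells scored for general mammalian cytotoxicity.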 The assay is classed as functional, cell-based.
The nature of assay [14]: P. falciparum Dd2 growth inhibitors, dose response, SYBR Green, cherry-picked samples (AID 1159567). The assay is classed as functional, cell-based.
Assay [15] is described as follows: toxicity to human hepatoma HepG2 cells – cell-based, cherry-picked samples, cytotoxicity control, dose response (AID 1159577). The assay is classed as functional.
A short description of assay [16]: Dd2 parasite growth inhibition in erythrocytes – SYBR Green, dry powder samples, set 9, dose response (AID 1159568). The assay is classed as functional, cell-based.
Assay [17] can be described thus: Dd2 parasite growth inhibition in erythrocytes – SYBR Green, dry powder samples, set 4, dose response (AID 1159572). The assay is classed as functional, cell-based.
Assay [18] in a line: antimalarial activity against Dd2 parasites – SYBR Green fluorescence, erythrocytes, dry powder, set 2, dose response (AID 1159574). The assay is classed as functional, cell-based.
A short description of assay [19]: IC50 of insulin release inhibition, rat insulinoma INS-1E line, 5 mM glucose, cell-based (AID 1117331). The assay is classed as functional.
Another assay deals with HeLa. Put plainly: viability loss in HeLa cells – cell-based, ATP luminescence, cherry-pick samples, cytotoxicity control, dose response (AID 687004). The assay is classed as functional. The following applies: Homo sapiens.

Structures can show the parent of a compound that is named as a salt. Activity calls are given as the source filed them.
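For EC50 in this document: agonist activity at LXR measured by a cell-based luminescence readout across a dose range, run as a counterscreen for daf-12 agonists; HEK293 cells with Gal4-LXR fusion and GAL4-driven luciferase reporter; potency for activation of Gal4-LXR reporter so compounds are agonists.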

Chain of Vasopressin V1b receptor (P47901 whole entry): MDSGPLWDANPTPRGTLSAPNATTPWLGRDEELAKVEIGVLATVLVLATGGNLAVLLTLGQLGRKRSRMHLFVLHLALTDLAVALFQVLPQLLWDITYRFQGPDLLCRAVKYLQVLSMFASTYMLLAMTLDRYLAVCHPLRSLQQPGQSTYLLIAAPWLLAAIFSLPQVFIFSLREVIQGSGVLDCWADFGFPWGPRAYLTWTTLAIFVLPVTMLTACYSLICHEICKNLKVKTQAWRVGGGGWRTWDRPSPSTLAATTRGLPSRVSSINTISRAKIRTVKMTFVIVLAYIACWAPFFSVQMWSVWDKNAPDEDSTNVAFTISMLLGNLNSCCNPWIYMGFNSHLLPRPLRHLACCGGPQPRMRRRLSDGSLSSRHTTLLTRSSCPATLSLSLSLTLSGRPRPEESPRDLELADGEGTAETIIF
Chain of Vasopressin V2 receptor (P30518 whole entry): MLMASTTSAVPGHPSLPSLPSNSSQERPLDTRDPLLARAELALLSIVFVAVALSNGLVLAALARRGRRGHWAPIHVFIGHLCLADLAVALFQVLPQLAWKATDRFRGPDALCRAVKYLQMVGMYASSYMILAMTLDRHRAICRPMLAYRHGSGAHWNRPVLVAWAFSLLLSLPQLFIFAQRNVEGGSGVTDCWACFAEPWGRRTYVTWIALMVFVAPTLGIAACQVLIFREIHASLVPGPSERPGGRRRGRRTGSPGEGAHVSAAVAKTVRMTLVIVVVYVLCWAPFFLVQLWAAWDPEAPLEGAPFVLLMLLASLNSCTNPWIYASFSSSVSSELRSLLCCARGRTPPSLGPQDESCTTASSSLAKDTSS

The term IC50 denotes the midpoint of a concentration-inhibition curve. Consider `CCN1CCN(Cc2nc3ccc([N+](=O)[O-])cc3c(=O)n2-c2ccccc2)CC1`, for which the IC50 in assay [1] was 0.01 µM (active); in assay [2] it was 0.27 µM (active); in [3], 0.32 µM (active).

Consider `Cc1ccccc1N1CCN(c2nc3ccccc3n2CC2CC2)CC1`, for which the concentration for half-maximal inhibition (IC50) in assay [4] was 7.54 µM (active); at Vasopressin V1b receptor, 15.5 µM (inactive); in assay [5], 19.4 µM (inactive); on Vasopressin V2 receptor, 19.4 µM (inactive).

For `C[C@H]1CN([C@@H](C)CO)C(=O)c2cccc(NC(=O)c3ccncc3)c2O[C@@H]1CN(C)Cc1ccc(C(=O)O)cc1`, the IC50 in [6] was > 20 µM (inactive).

One may read the IC90 as the concentration at which the effect reaches the 90% level. What is called AC50 is the midpoint of the concentration-response curve, whichever way the signal moves. As for `c1ccc(Cn2cc(CSc3nnc(C4CCCC4)o3)nn2)cc1`, the IC90 in assay [7] was 250 µM (active); in [8] it was 4 µM (active); in [9] it was 4 µM (active). Besides, the AC50 in assay [10] is > 52 µM (inactive).

For orientation: EC50 means the midpoint of the concentration-response curve. `Cc1ccc(/C=N/NC(=O)c2ccccn2)s1`: the EC50 in assay [11] was > 67.6 µM (inactive).

As for `CC(=O)/N=c1\scc(-c2ccccc2)n1-c1cccc(O)c1`, the AC50 in assay [12] was 25.1 µM (active); in assay [13] it was 44.8 µM (active).

Take `C/C=C/c1ccc([C@@H]2[C@@H]3CN(Cc4cccc(F)c4)C[C@H]2N3)cc1`: the AC50 in assay [14] is 4.24 µM (active); in assay [15] it was 9.58 µM (active).

For the molecule `O=C(Nc1ccccc1F)N1CCCCN2[C@H](C1)[C@@H](c1ccc(/C=C/c3ccccc3)cc1)[C@@H]2CO`, the concentration at half-maximal activity (AC50) in [16] is 7.14 µM (active).

For `COc1ccc2c3c([nH]c2c1)[C@H](CO)N(C(C)=O)CC31CCN(C(=O)Nc2ccc(F)cc2)CC1`, in assay [17], the AC50 is 0.834 µM (active).

Regarding `COc1ccc(S(=O)(=O)N(C)C[C@@H]2OCc3ccccc3-c3c(n(C)c4ccccc34)C(=O)N([C@H](C)CO)C[C@@H]2C)cc1`, in assay [18], the concentration at half-maximal activity (AC50) is 6.36 µM (active).

With `CCCN1CCCC[C@H]1C(=O)Nc1c(C)cccc1C` [ROPIVACAINE HYDROCHLORIDE], the IC50 in [19] was > 33.3 µM (inactive). The AC50 in the assay on HeLa was > 52 µM (inactive).
